1 molecule from article PMC5522071, “Preclinical development of G1T38: A novel, potent and selective inhibitor of cyclin dependent kinases 4/6 for use as an oral antineoplastic in patients with CDK4/6 sensitive tumors” (Oncotarget, 2017) can be followed below.

This assay deals with RB phosphorylation (Ser807/811) in WM2664 cells. The assay is described as follows: Western blot for pRb and total Rb. Format: cell-based. On the procedure:
Once phosphorylated, RB dissociates from cell cycle-promoting transcription factors, allowing them to drive the G1 to S-phase transition. Therefore, CDK4/6 inhibition of RB phosphorylation will arrest cells in G1. To assess the effect of G1T38 on RB phosphorylation, WM2664 cells were treated with varying doses of G1T38 for 24 hours. After treatment, cells were harvested and phosphorylation of RB at the Ser807/811 sites was evaluated via immunoblotting. Phosphorylation of RB at Ser807/811 sites first requires binding of CDK4/6 [3] in order to progress into S-phase. […] To determine the kinetics of CDK4/6 inhibition on RB phosphorylation, WM2664 cells were treated with 300 nM G1T38 for 1, 4, 8, 16, and 24 hours.
WM2664 cells were either treated for dose response (3, 10, 30, 100, 300 or 1000 nM) for 24 hours or a time course (1, 4, 8, 16 or 24 hours) with 300 nM G1T38. Whole cell extracts were prepared using 1x radioimmunoprecipitation assay buffer (RIPA) (ThermoFisher) containing 1x HALT® protease and phosphatase inhibitors (ThermoFisher). Total protein concentration was determined by using the bicinchoninic acid (BCA) Protein Assay Kit (PIERCE/ ThermoFisher), according to manufacturer's instructions. 20 micrograms of protein were heat denatured for 10 minutes at 70°C and resolved by Novex® NuPAGE® SDS-PAGE gel system (ThermoFisher) at 200 volts, constant current and transferred to 0.45 μm nitrocellulose membrane (Life Technologies) in 1 x Transfer buffer (Life Technologies) plus 20% methanol (Sigma-Aldrich (St. Louis, MO) by electroblotting at 35 volts, constant current. Membranes were blocked in LiCor Membrane Blocking Buffer (Lincoln, NE) and incubated overnight with either rabbit anti-pRb (Ser807/811, CST-9308) antibody (Cell Signaling Technology (Danvers, MA) at a 1:500 dilution or mouse anti-Rb (CST-9309) at a 1:2,000 dilution and mouse α-tubulin (CST-3873) antibody (Cell Signaling Technology) at a 1:1,000 dilution, as a loading control. […] Blots were incubated for one hour, washed and imaged using LiCor ImageStudio software (Version 4.0.21).

A value given as a limit tells only on which side of the number the result lay.

For the molecule `CC(C)N1CCN(c2ccc(Nc3ncc4cc5n(c4n3)C3(CCCCC3)CNC5=O)nc2)CC1.Cl.Cl` [G1T38, 2′-((5-(4-isopropylpiperazin-1-yl)pyridin-2-yl)amino)-7′, 8′dihydro-6′Hspiro[cyclohexane1,9′ pyrazino[1′,2′:1,5]pyrrolo[2,3-d]pyrimidin]-6′-one di-hydrochloride], for the setting “300 nM”, the “time to near complete inhibition of RB phosphorylation post-treatment” value is at most 16 h and the “time to reduced RB phosphorylation post-treatment” value is at most 1 h. For the same molecule, the “inhibition of RB phosphorylation (figure legend)” value (300 nM exposure, 24 hours) was “complete inhibition”. Besides, the “inhibition of RB phosphorylation compared to vehicle controls” value (30-1000 nM, 24 hours) is reported as “complete inhibition”.
